What is called MIC is the smallest concentration in the dilution series that meets the test's criterion for growth inhibition. As usually defined, the half-life is how long it takes for the measured level to halve. The term solubility denotes the concentration that dissolves in the medium under given conditions. Low values mean a poorly soluble substance, high ones a readily soluble substance. Usually Ki stands for a dissociation constant, usually derived from enzyme kinetics or from competition with a known ligand.

Molecules are shown by their SMILES. Values after ≈ are worked out from the molar mass of the structure shown. Values joined by “and” are separate entries in the source; they are usually repeats but may differ in a detail not shown here. Equal values may be shown once. Read-outs that look alike come from different tables or passages of the source. Bounds are passed on as bounds.

Consider 3 compounds from patent US6448256B1, “Antibiotic prodrugs” (University of Massachusetts, priority 1999, dated 2002).

The test system of one data set is B. subtilis. As to the kind of experiment: MIC against B. subtilis. Format: cell-based. The settings on record: for MIC: Bacillus subtilis, Table 6, read-out: MIC B. subtilis. On the procedure:
(§1) To further investigate the antibacterial and/or DNA pol III inhibitory activity of various drug compounds, various ester-containing moieties N-linked to the EMAU core were produced as described in Example 1. These prodrugs were assayed for inhibition of B. subtilis DNA pol III and antibiotic activity against a number of bacteria.
(§2) The minimal inhibitory concentrations (MICs) of the four N3-substituted agents and EMAU were determined for B. subtilis (BS), methicillin-sensitive and resistant S. aureus (SA & MRSA), vancomycin-sensitive and resistant E. fecalis (EF& VREF), vancomycin-resistant E. fecium (VREF*), and E. coli (EC) as a Gram-negative control.

Data set [1] can be described thus: Prodrug conversion in mouse plasma in vitro (HPLC). Format: in vitro ADME. On the procedure: (§3) The conversion rate of prodrugs can be measured by first establishing a reverse phase HPLC method for the detection of both prodrug and drug in a biological sample such as plasma or serum. A stock solution of prodrug, usually in saline, is diluted 1:5 in animal plasma or saline. […] If necessary, the sample can be thawed in a 37° C. water bath. Aliquots of the diluted sample are taken at 15, 30, 45, 60, 90, 120, and 180 minutes. Longer time points are usually needed for saline solutions because the rates of spontaneous hydrolysis are much longer than for enzyme-catalyzed hydrolysis. The aliquots are analyzed at a 1:10 dilution using HPLC, and the fraction of prodrug which has been converted at each time point calculated.
(§4) The rate of formation of the drug and the rate of decay of the prodrug had doubling and half-life times, respectively, of about 30 minutes. In contrast, the estimated half-life of Val-B-EMAU in physiological saline at 37° C. was greater then 5000 hours. The mechanism for the decomposition of Val-B-EMAU by plasma is presumed to involve esterases in the circulation.
(§5) To further define the conversion rate of Val-B-EMAU (4a), the prodrug was incubated in 80% mouse plasma.

Another data set concerns E. fecalis. As to the kind of experiment: MIC against E. fecalis. Format: cell-based. Conditions: for MIC: Table 6, read-out: MIC E. fecalis. On the procedure: as §1, §2
In data set [2] the test system is S. aureus (methicillin-sensitive Smith strain). As to the kind of experiment: ip/ip mouse protection against lethal S. aureus infection. Format: in vivo, mice. The settings on record: 10 mg/kg, four day experiment, ten animals. The procedure: Step 1: Screening—Each candidate prodrug is screened for activity in an ip/ip S. aureus protection model. Candidates that display efficacy equivalent to that of HB-EMAU and HB-IMAU are selected for advanced pharmacokinetic analysis and application in the more relevant mouse thigh model of infection.
The efficacy of the propyl derivatives was tested against murine staphylococcal infection in vivo. A simple “ip/ip” system was used, in which 20 gram mice (10 each) were injected ip (intraperitoneally) with a lethal dose (2.3×10^7 CFU) of the methicillin-sensitive Smith strain of S. aureus. The mice were then immediately injected ip with the antibiotic agent as a 1:9 mixture of DMSO:peanut oil. Vancomycin was used as the positive control drug.
Both hydroxybutyl compounds were tested at 10 mg/kg in the mouse protection experiment against lethal S. aureus infection described in Example 4 above.

Data set [3] deals with S. aureus. As to the kind of experiment: MIC against S. aureus (methicillin-sensitive). Format: cell-based. Conditions: for MIC: Staphylococcus aureus. The procedure:
as §1, §2

Data set [4] can be described thus: Plasma pharmacokinetics after intravenous administration to mice. Format: in vivo. The settings on record: for half-life: mouse, plasma, 25 mg/kg. The procedure:
(d) Elimination halfife and apparent volume of distribution. An appropriate dose of each agent (the maximum permitted by the results of the above dose/toxicity studies) is injected via the tail vein to a series of mice (e.g., 12). At specific times following injection (e.g., 10, 20, 30, 45, 90, and 150 minutes), mice (e.g., a pair) are restrained in DecapiCones and decapitated, and their blood collected individually by exsanguination into a sterile test tube.
The blood samples are centrifuged to yield clear plasma (yield: 0.4-0.6 ml per mouse). Approximately 0.2 ml of the plasma sample are used for HPLC analysis, using conditions established herein for quantitation of the compound. The individual plasma levels for each time point are averaged, and the data are analyzed to estimate Vd and half-life by established methods (Gibaldi, M. and D. Perrier. Pharmacokinetics. Marcel Dekker, Inc., New York, 1975).
Solutions of Val-B-EMAU in saline were next injected into the tail veins of mice at a dose of 25 mg/kg body weight. Animals were sacrificed at various times after dosing, and plasma was isolated and subjected to HPLC analysis.
Each value plotted in FIG. 3 represents the average of four measurements, each in a different animal.

Data set [5] can be described thus: Plasma pharmacokinetics after oral administration to mice. Format: in vivo. The procedure: (e) Uptake from subcutaneous (sc), intraperitoneal (ip), and oral (Po) routes, Oral dosing can be performed by gavage with a small stomach tube to DecapiCone-restrained animals. […] At specific times following administration (e.g., 15, 30, 60, 90, 150 and 240 minutes), two mice are sacrificed and their plasma samples prepared and analyzed by HPLC as described above in (d). Following decapitation, the site of drug application in each animal's carcass is dissected and inspected visually for evidence of precipitation.
Each value plotted in FIG. 4 is an average of two measurement, each in a different animal.

The next data set in a line: Solubility in water. Format: physicochemical. The settings on record: 25° C. An excerpt: The prodrug 3-(L-valylbutyl)-EMAU (Val-B-EMAU, 4a) was synthesized as a hydrochloride. The structure was confirmed by NMR. The compound had high solubility in water. […] Two different synthesis methods were used.
Data set [6] concerns S. aureus. As to the kind of experiment: Bactericidal activity (killing) against S. aureus. Format: cell-based. Conditions: 2, 4, and 8× MIC, killing continued for 24 hours.
The target of another data set is B. subtilis DNA pol III (Bacillus subtilis, UniProt P13267). The data set can be described thus: Inhibition of B. subtilis DNA pol III (Ki). Format: biochemical. On the procedure: as §1
The competitive inhibitor constants (Ki) of selected EMAU compounds were determined with three different pol Ills: the pol III enzyme from Bacillus subtilis (BS pol III), and the pol III enzymes of the clinically relevant pathogens, Enterococcus fecalis (EF pol III) and Staphylococcus aureus (SA pol 111).

The next data set concerns E. coli. As to the kind of experiment: MIC against E. coli (Gram-negative control). Format: cell-based. Conditions: Table 2. On the procedure:
as §1, §2

The test system of the next data set is MRSA. The data set can be described thus: MIC against methicillin-resistant S. aureus strain MRSA / MRSA1. Conditions: Table 2. Format: cell-based. The procedure:
as §1, §2

The next data set relates to MRSA2. The data set can be described thus: MIC against methicillin-resistant S. aureus strain MRSA2. Conditions: Table 2. Format: cell-based. On the procedure:
as §1, §2

The subject of the next data set is E. fecium. The data set can be described thus: MIC against E. fecium. The settings on record: Table 2. Format: cell-based. The procedure:
as §1

Data set [7] concerns vancomycin-resistant E. fecium. As to the kind of experiment: MIC against vancomycin-resistant E. fecium (VRE, VREF*). Conditions: Table 2, vancomycin-resistant E. fecium. Format: cell-based. The procedure: as §1, §2
Data set [8] can be described thus: Prodrug stability in physiological saline. Format: physicochemical. The procedure: as §3, §4, §5
The mark [9] stands for this setting: Table 1, read-out: Ki B. subtilis pol III.
The mark [10] stands for this setting: Table 6, read-out: Ki, inhibition constant vs. B. subtilis DNA pol III.

B. subtilis DNA pol III, sequence (P13267 whole entry): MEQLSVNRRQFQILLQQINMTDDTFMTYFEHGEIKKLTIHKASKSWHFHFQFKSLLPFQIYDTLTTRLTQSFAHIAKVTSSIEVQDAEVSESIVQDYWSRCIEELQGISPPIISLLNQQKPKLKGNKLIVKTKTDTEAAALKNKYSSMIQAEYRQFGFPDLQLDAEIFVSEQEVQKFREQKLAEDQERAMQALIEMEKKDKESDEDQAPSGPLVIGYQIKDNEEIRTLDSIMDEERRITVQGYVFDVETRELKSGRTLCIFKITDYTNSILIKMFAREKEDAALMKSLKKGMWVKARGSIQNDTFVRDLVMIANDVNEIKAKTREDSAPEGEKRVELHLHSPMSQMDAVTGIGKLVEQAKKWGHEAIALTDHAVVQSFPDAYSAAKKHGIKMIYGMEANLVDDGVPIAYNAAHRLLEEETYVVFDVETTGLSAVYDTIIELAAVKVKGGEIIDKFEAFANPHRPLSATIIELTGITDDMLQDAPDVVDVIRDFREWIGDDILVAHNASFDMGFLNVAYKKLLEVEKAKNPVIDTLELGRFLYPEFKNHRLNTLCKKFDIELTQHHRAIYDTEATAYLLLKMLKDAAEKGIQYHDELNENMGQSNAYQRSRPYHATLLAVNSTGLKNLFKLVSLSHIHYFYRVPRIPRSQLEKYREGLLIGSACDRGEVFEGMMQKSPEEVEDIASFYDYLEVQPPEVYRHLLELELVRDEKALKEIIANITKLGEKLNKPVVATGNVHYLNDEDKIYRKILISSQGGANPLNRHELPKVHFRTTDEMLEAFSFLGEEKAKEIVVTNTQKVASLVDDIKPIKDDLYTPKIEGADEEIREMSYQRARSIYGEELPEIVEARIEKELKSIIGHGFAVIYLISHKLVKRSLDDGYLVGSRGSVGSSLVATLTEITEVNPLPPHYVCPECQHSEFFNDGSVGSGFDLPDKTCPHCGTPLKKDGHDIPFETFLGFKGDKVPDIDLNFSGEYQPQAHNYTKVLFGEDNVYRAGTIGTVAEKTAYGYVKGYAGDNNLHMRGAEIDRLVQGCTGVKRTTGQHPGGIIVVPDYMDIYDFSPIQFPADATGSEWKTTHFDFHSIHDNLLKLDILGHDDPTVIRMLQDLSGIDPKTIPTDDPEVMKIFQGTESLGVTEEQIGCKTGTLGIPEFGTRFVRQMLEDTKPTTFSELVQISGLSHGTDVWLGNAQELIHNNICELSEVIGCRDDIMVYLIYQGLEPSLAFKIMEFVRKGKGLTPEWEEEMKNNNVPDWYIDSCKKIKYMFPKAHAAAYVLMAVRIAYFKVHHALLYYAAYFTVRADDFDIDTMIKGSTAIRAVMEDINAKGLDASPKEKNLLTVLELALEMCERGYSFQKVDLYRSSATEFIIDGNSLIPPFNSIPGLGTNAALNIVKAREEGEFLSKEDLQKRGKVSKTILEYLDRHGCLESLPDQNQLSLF

For the compound `CCc1cc(Nc2cc(=O)n(CCCCO)c(=O)[nH]2)ccc1C` [HB-EMAU], the MIC was less than 3.1 µg/mL with B. subtilis, 6 µg/mL (≈ 18.9 µM) in the data set on E. fecalis and 6 µg/mL (≈ 18.9 µM) in the data set with S. aureus [3] (read-out: MIC S. aureas). In addition, the “doubling time of formation of the drug” value in data set [1] (mouse) is “about 30 minutes”. Besides, the “animals protected from death” value in data set [2] was “all ten animals”. Moreover, in data set [4] (after iv Val-B-EMAU 25 mg/kg (FIG. 1)), the “time at which HB-EMAU concentration peaked” value is “about 20 minutes”. In addition, the half-life in data set [4] (iv, after iv Val-B-EMAU 25 mg/kg (FIG. 1), read-out: half life of HB-EMAU) is roughly 43 min; in data set [4] (iv, after iv Val-B-EMAU (4a) 25 mg/Kg (FIG. 3), average of four measurements, read-out: elimination half-life of HB-EMAU), 15.6 min. Besides, the “area under the curve for HB-EMAU, estimated” value in data set [5] (HB-EMAU administered directly) is 0.1%. Moreover, the “peak concentration of HB-EMAU” value in data set [5] (mice, after oral VB-EMAU 100 mg/Kg) was 11.2 μM and 3.5 μg/ml. Moreover, in data set [5] (mice, after oral Val-B-EMAU (4a) 100 mg/Kg), the “plasma HB-EMAU at four hours after administration” value is “no detectable”. For the same compound, the “time at which plasma level of HB-EMAU peaked” value in [5] (mice, after oral Val-B-EMAU (4a) 100 mg/Kg in physiological saline (FIG. 4)) was found to be 60 min. Moreover, the solubility in the data set “Solubility in water” is roughly 30 µg/mL (≈ 94.5 µM). In addition, the “bactericidal for S. aureus” value in the data set on S. aureus [6] is reported as “bactericidal”. In addition, the Ki was determined as 190 nM at B. subtilis DNA pol III (setting [9]) and 180 nM at B. subtilis DNA pol III (setting [10]).
As to `Cc1ccc(Nc2cc(=O)n(CCCCO)c(=O)[nH]2)cc1I` [HB-IMAU], the MIC in the data set on B. subtilis was less than 3.1 µg/mL; with E. fecalis, 6 µg/mL (≈ 14.4 µM); in the data set with S. aureus [3] (read-out: MIC S. aureas), 6 µg/mL (≈ 14.4 µM). The “animals protected from death” value in data set [2] is on record as “nine of ten animals”. In the data set with S. aureus [6], the “bactericidal for S. aureus” value is “bactericidal”. In addition, the Ki at B. subtilis DNA pol III (setting [10]) worked out at 220 nM.
For `CCc1cc(Nc2cc(=O)n(CCCCOC(=O)[C@@H](N)C(C)C)c(=O)[nH]2)ccc1C` [Val-B-EMAU, 3-(L-valylbutyl)-EMAU], the “MIC E. coli” value against E. coli is given as greater than 33 μ/ml. For the same compound, the “MIC B. subtilis” value against B. subtilis (Table 2) is 4 μ/ml. For the same compound, the half-life is 37.8 min in data set [1] (80% mouse plasma, 37° C. (FIG. 2), read-out: prodrug half-life); roughly 30 min in data set [1] (mouse plasma, 37° C., HPLC, read-out: half-life of decay of the prodrug); 34 min in [4] (intravenous, tail vein, 25 mg/kg in saline (FIG. 1), read-out: half life of Val-B-EMAU in plasma); greater than 208 days in data set [8] (37° C., read-out: estimated half-life in physiological saline); 18.8 to 20.8 days in data set [8] (b125, read-out: half-life in physiological saline). In the data set with E. fecalis (Table 2), the “MIC E. fecalis” value was found to be 17 μ/ml. The “MIC MRSA” value with MRSA came to 33 μ/ml. In addition, in the data set with S. aureus [3] (Table 1, read-out: MIC S. aureus), the minimum inhibitory concentration (MIC) was less than 20 µg/mL. Further, the “MIC S. aureus” value in the data set on S. aureus [3] (Table 2) came out at 17 μ/ml. Moreover, in the data set with MRSA2, the “MIC MRSA2” value came out at 33 μ/ml. This compound came in with a solubility in the data set “Solubility in water” greater than 10000 µg/mL. The “MIC E. fecium” value against E. fecium is 33 μ/ml. Also, the “MIC VRE” value in data set [7] is reported as 8 μ/ml. Moreover, the inhibition constant (Ki) at B. subtilis DNA pol III (setting [9]) worked out at 530 nM; on B. subtilis DNA pol III (Table 2, prodrugs having the EMAU core, read-out: Ki B. subtilis DNA Pol III), 530 nM.
